Assay results reported in patent US20230034660A1, “PEPTIDES THAT ENHANCE NMDA RECEPTOR FUNCTION AND USE THEREOF” (University of Pittsburgh - Of the Commonwealth System of …, priority 2019, published 2023).

Tested on: NMDAR
Assay: NMDAR-mediated currents evoked by uncaging MNI-caged glutamate in cortical cultures, ZX1 potentiation
Type: cell-based, rat
Conditions: cortical cultures treated with peptide 3 μM overnight; held at −70 mV, Mg2+ free
Protocol: FIGS. 5A-5C: N2AZ reduces zinc inhibition of NMDAR currents in cortical cultures. (FIG. 5A) Representative image of a neuron in cortical culture filled with Alexa 548 during whole cell recording. Asterisk represents location of laser photolysis of MNI-caged glutamate (40 μM, 1 millisecond pulse) used to evoke EPSCs. (FIG. 5B) Sample traces of NMDAR EPSCs, averaged over 5 sweeps, evoked by photolysis of MNI-caged glutamate in cortical cultures held at −70 mV in Mg^2 + free solution. […] Bar graphs represent the average potentiation of responses 5 minutes after ZX1 application. Errors bars indicate mean±SEM. […]
Whole-cell recordings from cultured cortical neurons were obtained with glass micropipettes (3-6 MΩ) containing 140 mM CsF, 10 mM CsEGTA, 1 mM CaCl2, 10 mM HEPES, pH=7,2, 295 mOsm. […] Using ephus (Suter et al. 2010) and a Multiclamp 700B amplifier (Molecular Devices), NMDAR excitatory postsynaptic currents (EPSCs) were recorded in voltage clamp (held at −70 mV) in the presence of TTX (300 nM to prevent synaptic activity), DNQX (20 μM, AMPA and kainate receptor antagonist), and 4-Methoxy-7-nitroindolinyl (MNI)-caged glutamate (40 μM). […] The ZX1-mediated potentiation for each cell was calculated as the average percent increase in responses following application of the metal chelator across these 4 uncaging locations. […]

Sequence | ZX1 potentiation of NMDAR-mediated currents above baseline
NDSYLRSSL [Peptide N2AZ] | 1.34±3.48%
SNLSDSYDR [scN2AZ, reference compound] | 37.40±11.63%
